SMILES strings stand for the structures.

In the first assay the test system is Mycobacterium tuberculosis. Description: Antimycobacterial activity against Mycobacterium tuberculosis H37Rv assessed as growth inhibition by microdilution AlamarBlue broth assay. The class given is functional, organism-based. (Broth dilution looks for growth in wells or tubes with falling amounts of substance.)
A word on the IC50: it is the point on the concentration scale where inhibition reaches its midpoint. The IC90 is the concentration at which the effect reaches the 90% level. The MIC is the lowest concentration found to suppress growth. For the compound `CCOC(=O)Cn1cc(CN(C2=CC(=O)c3ccccc3C2=O)c2cccc(OC)c2)nn1`, the IC50 is 18.6 µM, the IC90 worked out at 27.7 µM and the minimum inhibitory concentration (MIC) was determined as 50 µM.

As for `O=C1C=C(N(Cc2cn(Cc3ccccc3)nn2)c2ccc(Cl)cc2)C(=O)c2ccccc21`, the IC50 was 2.58 µM, the IC90 was found to be 15.1 µM and the minimum inhibitory concentration (MIC) came to 25 µM.

Turning to `Cc1ccc(N(Cc2cn(-c3cc4cc(Br)ccc4oc3=N)nn2)C2=CC(=O)c3ccccc3C2=O)cc1`, the IC50 is 21.9 µM, the concentration for an effect of 90% (IC90) was determined as 44.6 µM and the MIC came out at 100 µM.

As to `Cc1ccc(N(Cc2cn(-c3cc4ccccc4oc3=N)nn2)C2=CC(=O)c3ccccc3C2=O)c(C)c1`, the IC50 was determined as 21.6 µM, the IC90 was found to be 55.1 µM and the MIC amounted to 100 µM.

`N#CCn1cc(CN(C2=CC(=O)c3ccccc3C2=O)c2ccccc2Cl)nn1`: the IC50 was 11.2 µM, the IC90 came to 25.9 µM and the MIC stood at 50 µM.

For the compound `O=C1C=C(N(Cc2cn(C3=CC(=O)c4ccccc4C3=O)nn2)c2ccc(Cl)cc2)C(=O)c2ccccc21`, the half-maximal inhibitory concentration (IC50) was found to be 7.2 µM, the IC90 was found to be 16.5 µM and the MIC worked out at 25 µM.

For the compound `N[C@@H]1CONC1=O` [CYCLOSERINE], the MIC was 25 µM.

As to `O=C1C=C(N(Cc2cn(Cc3ccccc3)nn2)c2ccc(Cl)cc2Cl)C(=O)c2ccccc21`, the IC50 turned out to be 5.38 µM, the IC90 came to 9.97 µM and the MIC worked out at 25 µM.

On to `CCOC(=O)Cn1cc(CN(C2=CC(=O)c3ccccc3C2=O)c2ccc(C)cc2)nn1`, for which the IC50 was 11.9 µM, the IC90 stood at 27.9 µM and the MIC came to 50 µM.

With `N=c1oc2ccc(Cl)cc2cc1-n1cc(CN(C2=CC(=O)c3ccccc3C2=O)c2ccc(F)cc2)nn1`, the IC50 came to 3.18 µM, the IC90 was determined as 9.86 µM and the MIC turned out to be 25 µM.

In the case of `Cc1ccccc1N(Cc1cn(CC#N)nn1)C1=CC(=O)c2ccccc2C1=O`, the IC50 was 10.6 µM, the IC90 amounted to 19.8 µM and the MIC is 50 µM.

Consider `C=CCn1cc(CN(C2=CC(=O)c3ccccc3C2=O)c2ccc(Cl)cc2)nn1`, for which the IC50 came to 21.6 µM, the IC90 stood at 45.1 µM and the MIC worked out at 50 µM.

For `O=C1C=C(N(Cc2cn(Cc3ccccc3)nn2)c2ccc(Br)cc2)C(=O)c2ccccc21`, the IC50 worked out at 28.7 µM, the IC90 stood at 47.9 µM and the MIC came to 100 µM.

On to `Cc1ccc(N(Cc2cn(Cc3ccccc3)nn2)C2=CC(=O)c3ccccc3C2=O)cc1`, for which the IC50 worked out at 17 µM, the IC90 worked out at 38.9 µM and the MIC was found to be 50 µM.

`CC[C@@H](CO)NCCN[C@@H](CC)CO` [ETHAMBUTOL]: the IC50 was under 1.56 µM and the minimum inhibitory concentration (MIC) was determined as 12.5 µM.

Consider `COc1cccc(N(Cc2cn(Cc3ccccc3)nn2)C2=CC(=O)c3ccccc3C2=O)c1`, for which the IC50 stood at 24.9 µM, the IC90 came out at 36.4 µM and the minimum inhibitory concentration (MIC) is 50 µM.

As for `CCOC(=O)Cn1cc(CN(C2=CC(=O)c3ccccc3C2=O)c2ccccc2Cl)nn1`, the IC50 was determined as 18.3 µM, the IC90 was 36.5 µM and the MIC came out at 50 µM.

Regarding `O=C1C=C(N(Cc2cn(Cc3ccccc3)nn2)c2ccc(C(F)(F)F)cc2)C(=O)c2ccccc21`, the IC50 turned out to be 1.87 µM, the IC90 turned out to be 4.6 µM and the MIC was found to be 10 µM.

Take `CCc1nc(N)nc(N)c1-c1ccc(Cl)cc1` [PYRIMETHAMINE]: the IC50 amounted to 37.4 µM, the IC90 is 75 µM and the MIC is 100 µM.

On to `O=C1C=C(N(Cc2cn(Cc3ccccc3)nn2)c2ccccc2Cl)C(=O)c2ccccc21`, for which the IC50 stood at 15.3 µM, the IC90 came to 44.3 µM and the MIC came out at 50 µM.

For the compound `N#CCn1cc(CN(C2=CC(=O)c3ccccc3C2=O)c2ccccc2)nn1`, the IC50 stood at 9.95 µM, the 90% effect concentration (IC90) is 21.9 µM and the MIC amounted to 25 µM.

As for `C=CCn1cc(CN(C2=CC(=O)c3ccccc3C2=O)c2ccccc2)nn1`, the IC50 was 25.5 µM, the IC90 stood at 55.4 µM and the MIC was 100 µM.

As for `COc1cccc(N(Cc2cn(-c3cc4ccccc4oc3=N)nn2)C2=CC(=O)c3ccccc3C2=O)c1`, the half-maximal inhibitory concentration (IC50) turned out to be 18.6 µM, the IC90 came to 37.7 µM and the minimal inhibitory concentration (MIC) is 50 µM.

Consider `CCOC(=O)Cn1cc(CN(C2=CC(=O)c3ccccc3C2=O)c2ccc(F)cc2)nn1`, for which the IC50 was 17.2 µM, the IC90 was 36.5 µM and the MIC is 50 µM.

Regarding `O=C1C=C(N(Cc2cn(C3=CC(=O)c4ccccc4C3=O)nn2)c2ccc(Br)cc2)C(=O)c2ccccc21`, the IC50 turned out to be 19.2 µM, the concentration for an effect of 90% (IC90) was 46.5 µM and the MIC amounted to 50 µM.

With `C=CCn1cc(CN(C2=CC(=O)c3ccccc3C2=O)c2ccccc2C)nn1`, the IC50 came to 15.3 µM, the IC90 was determined as 34.3 µM and the MIC came out at 50 µM.

On to `N=c1oc2ccccc2cc1-n1cc(CN(C2=CC(=O)c3ccccc3C2=O)c2ccc(F)cc2)nn1`, for which the IC50 is 8.57 µM, the IC90 is 17.7 µM and the MIC was 25 µM.

As for `N=c1oc2ccccc2cc1-n1cc(CN(C2=CC(=O)c3ccccc3C2=O)c2ccccc2Cl)nn1`, the IC50 amounted to 27.2 µM, the IC90 amounted to 36.5 µM and the minimal inhibitory concentration (MIC) is 50 µM.

With `O=C(Cn1cc(CN(C2=CC(=O)c3ccccc3C2=O)c2ccc(Cl)cc2Cl)nn1)c1ccccc1`, the IC50 was determined as 13.3 µM, the IC90 was determined as 27.9 µM and the MIC worked out at 50 µM.

Take `Cc1ccc(N(Cc2cn(C3=CC(=O)c4ccccc4C3=O)nn2)C2=CC(=O)c3ccccc3C2=O)cc1`: the half-inhibitory concentration (IC50) was determined as 28.6 µM, the IC90 was 37.7 µM and the minimum inhibitory concentration (MIC) came to 50 µM.

With `CCOC(=O)Cn1cc(CN(C2=CC(=O)c3ccccc3C2=O)c2ccc(Br)cc2)nn1`, the IC50 amounted to 8.46 µM, the IC90 stood at 16.4 µM and the MIC was found to be 25 µM.

As for `NNC(=O)c1ccncc1` [ISONIAZID], the IC90 is 0.29 µM and the MIC was determined as 0.31 µM.

As to `Cc1ccc(N(Cc2cn(CC(=O)c3ccccc3)nn2)C2=CC(=O)c3ccccc3C2=O)cc1`, the IC50 was determined as 14 µM, the IC90 worked out at 28.9 µM and the MIC was 50 µM.

Regarding `N#CCn1cc(CN(C2=CC(=O)c3ccccc3C2=O)c2ccc(F)cc2)nn1`, the IC50 was found to be 2.81 µM, the IC90 came out at 6.13 µM and the minimum inhibitory concentration (MIC) came out at 15 µM.

Turning to `Cc1ccc(N(Cc2cn(-c3cc4ccccc4oc3=N)nn2)C2=CC(=O)c3ccccc3C2=O)cc1`, the IC50 is 23.9 µM, the IC90 is 47.6 µM and the minimal inhibitory concentration (MIC) worked out at 50 µM.

As for `COc1cccc(N(Cc2cn(CC#N)nn2)C2=CC(=O)c3ccccc3C2=O)c1`, the IC50 is 16.3 µM, the IC90 stood at 25.5 µM and the MIC was found to be 50 µM.

Take `C=CCn1cc(CN(C2=CC(=O)c3ccccc3C2=O)c2ccccc2Cl)nn1`: the IC50 came to 6.38 µM, the IC90 came out at 12 µM and the MIC was 25 µM.

For `CCOC(=O)Cn1cc(CN(C2=CC(=O)c3ccccc3C2=O)c2ccc(Cl)cc2)nn1`, the IC50 was 3.28 µM, the IC90 amounted to 7.86 µM and the minimal inhibitory concentration (MIC) is 25 µM.

As for `Cc1ccc2oc(=N)c(-n3cc(CN(C4=CC(=O)c5ccccc5C4=O)c4ccccc4)nn3)cc2c1`, the half-inhibitory concentration (IC50) was determined as 18.6 µM, the IC90 turned out to be 27.7 µM and the MIC stood at 50 µM.

On to `C=CCn1cc(CN(C2=CC(=O)c3ccccc3C2=O)c2ccc(F)cc2)nn1`, for which the IC50 was determined as 5.87 µM, the IC90 stood at 14.6 µM and the minimum inhibitory concentration (MIC) was found to be 25 µM.

On to `Cc1ccccc1N(Cc1cn(CC(=O)c2ccccc2)nn1)C1=CC(=O)c2ccccc2C1=O`, for which the IC50 came to 19.1 µM, the IC90 is 37.9 µM and the MIC was 50 µM.

Consider `C=CCn1cc(CN(C2=CC(=O)c3ccccc3C2=O)c2cccc(OC)c2)nn1`, for which the IC50 is 24.9 µM, the IC90 turned out to be 36.4 µM and the minimum inhibitory concentration (MIC) was determined as 50 µM.

On to `NCC[C@H](O)C(=O)N[C@@H]1C[C@H](N)[C@@H](O[C@H]2O[C@H](CN)[C@@H](O)[C@H](O)[C@H]2O)[C@H](O)[C@H]1O[C@H]1O[C@H](CO)[C@@H](O)[C@H](N)[C@H]1O` [AMIKACIN], for which the IC90 is 0.08 µM and the MIC was 0.16 µM.

The subject of another assay is Mycobacterium tuberculosis. Description: Ratio of pyrimethamine IC50 to compound IC50 for Mycobacterium tuberculosis H37Rv assessed as growth inhibition by microdilution AlamarBlue broth assay. The class given is functional.
Take `O=C1C=C(N(Cc2cn(Cc3ccccc3)nn2)c2ccc(C(F)(F)F)cc2)C(=O)c2ccccc21`: the “Ratio IC50” value was determined as 20.

For a further assay, the system named is Mycobacterium tuberculosis. Description: Ratio of cycloserine IC50 to compound IC50 for Mycobacterium tuberculosis H37Rv assessed as growth inhibition by microdilution AlamarBlue broth assay. It counts as functional.
With `O=C1C=C(N(Cc2cn(Cc3ccccc3)nn2)c2ccc(C(F)(F)F)cc2)C(=O)c2ccccc21`, the “Ratio IC50” value turned out to be 6.

The values above are taken from ChEMBL document CHEMBL3351272, “Sequential synthesis of amino-1,4-naphthoquinone-appended triazoles and triazole-chromene hybrids and their antimycobacterial evaluation” (Eur J Med Chem, 2014).
